Laboratory results from paper PMC8286840, “Identifying SARS-CoV-2 antiviral compounds by screening for small molecule inhibitors of Nsp3 papain-like protease” (Biochemical Journal, 2021).
Like-named read-outs stand apart in the source and are kept apart here.

How the values were obtained:
[1] = target: T1, SARS-CoV-2 PLpro (nsp3 1564–1878) (Severe acute respiratory syndrome coronavirus 2, UniProt P0DTD1); test: biochemical; parameters: FRET-quenched peptide (Pro3) cleavage by PLpro, 10 min pre-incubation, slope over 20 min, normalised to no-compound control; details: low concentration screen, read-out: % of control remaining
[2] = target: T1, SARS-CoV-2 PLpro (nsp3 1564–1878); test: biochemical; parameters: FRET-quenched peptide (Pro3) cleavage by PLpro, 10 min pre-incubation, slope over 20 min, normalised to no-compound control; details: high concentration screen, read-out: % of control remaining

COc1ccc(-c2coc3cc(O)ccc3c2=O)cc1 [Formononetin]
remaining activity at 1.25 µM ([1]; Well no.=3611): 96.9%
remaining activity at 3.75 µM ([2]; Well no.=3611): 96.2%

COc1ccc(C[C@H](C)NC[C@@H](O)c2ccc(O)c(NC=O)c2)cc1 [Formoterol (Fumarate)]
remaining activity at 1.25 µM ([1]; Well no.=6413): 101%
remaining activity at 3.75 µM ([2]; Well no.=6413): 95.1%

COc1ccc(C[C@@H](C)NC[C@H](O)c2ccc(O)c(NC=O)c2)cc1 [Formoterol hemifumarate]
remaining activity at 1.25 µM ([1]; Well no.=5014): 109%
remaining activity at 3.75 µM ([2]; Well no.=5014): 104%

COc1ccc(C[C@@H](C)NC[C@H](O)c2ccc(O)c(NC=O)c2)cc1 [Formoterol]
remaining activity at 1.25 µM ([1]; Well no.=473): 101%
remaining activity at 3.75 µM ([2]; Well no.=473): 99.6%

C=C[C@@]1(C)CC(=O)[C@]2(O)[C@@]3(C)[C@@H](O)CCC(C)(C)[C@@H]3[C@H](O)[C@H](OC(C)=O)[C@@]2(C)O1 [Forskolin]
remaining activity at 1.25 µM ([1]; Well no.=423): 99.9%
remaining activity at 1.25 µM ([1]; Well no.=3281): 99.5%
remaining activity at 1.25 µM ([1]; Well no.=8331): 98.2%
remaining activity at 3.75 µM ([2]; Well no.=423): 98.9%
remaining activity at 3.75 µM ([2]; Well no.=3281): 99.2%
remaining activity at 3.75 µM ([2]; Well no.=8331): 95.4%

CC(C)CN(C[C@@H](OP(=O)(O)O)[C@H](Cc1ccccc1)NC(=O)O[C@H]1CCOC1)S(=O)(=O)c1ccc(N)cc1 [Fosamprenavir]
remaining activity at 1.25 µM ([1]; Well no.=7846): 104%
remaining activity at 3.75 µM ([2]; Well no.=7846): 102%

C[C@@H](O[C@H]1OCCN(Cc2nn(P(=O)(O)O)c(=O)[nH]2)[C@H]1c1ccc(F)cc1)c1cc(C(F)(F)F)cc(C(F)(F)F)c1 [Fosaprepitant (dimeglumine)]
remaining activity at 1.25 µM ([1]; Well no.=7483): 104%
remaining activity at 3.75 µM ([2]; Well no.=7483): 97.1%

C[C@@H](O[C@H]1OCCN(Cc2nn(P(=O)(O)O)c(=O)[nH]2)[C@H]1c1ccc(F)cc1)c1cc(C(F)(F)F)cc(C(F)(F)F)c1 [Fosaprepitant dimeglumine]
remaining activity at 1.25 µM ([1]; Well no.=5269): 97.5%
remaining activity at 3.75 µM ([2]; Well no.=5269): 95.4%

COc1ccc(/C=C\c2cc(OC)c(OC)c(OC)c2)cc1OP(=O)(O)O [Fosbretabulin disodium]
remaining activity at 1.25 µM ([1]; Well no.=5660): 95.9%
remaining activity at 3.75 µM ([2]; Well no.=5660): 90.4%

O=C(O)P(=O)(O)O [Foscarnet Sodium]
remaining activity at 1.25 µM ([1]; Well no.=5321): 101%
remaining activity at 3.75 µM ([2]; Well no.=5321): 95.6%

CCC(=O)O[C@@H](O[P@](=O)(CCCCc1ccccc1)CC(=O)N1C[C@H](C2CCCCC2)C[C@H]1C(=O)O)C(C)C [Fosinopril (sodium)]
remaining activity at 1.25 µM ([1]; Well no.=8750): 93.5%
remaining activity at 3.75 µM ([2]; Well no.=8750): 94.7%

CCC(=O)O[C@@H](O[P@](=O)(CCCCc1ccccc1)CC(=O)N1C[C@H](C2CCCCC2)C[C@H]1C(=O)O)C(C)C [Fosinopril Sodium]
remaining activity at 1.25 µM ([1]; Well no.=8492): 101%
remaining activity at 3.75 µM ([2]; Well no.=8492): 102%

CCC(=O)O[C@@H](O[P@](=O)(CCCCc1ccccc1)CC(=O)N1C[C@H](C2CCCCC2)C[C@H]1C(=O)O)C(C)C [Fosinopril]
remaining activity at 1.25 µM ([1]; Well no.=1904): 89.9%
remaining activity at 3.75 µM ([2]; Well no.=1904): 89.1%

COc1cnc(-n2cnc(C)n2)c2c1c(C(=O)C(=O)N1CCN(C(=O)c3ccccc3)CC1)cn2COP(=O)(O)O [Fostemsavir]
remaining activity at 1.25 µM ([1]; Well no.=7748): 101%
remaining activity at 3.75 µM ([2]; Well no.=7748): 102%

C[C@H]1C(=O)CC[C@@H]2[C@]1(C)CC[C@H]1[C@@]2(C)CC[C@@]2(C)[C@@H]3CC(C)(C)CC[C@]3(C)CC[C@]12C [Friedelin]
remaining activity at 1.25 µM ([1]; Well no.=3208): 109%
remaining activity at 3.75 µM ([2]; Well no.=3208): 110%

O=c1[nH]c(=O)n(C2CCCO2)cc1F (centres unmarked) [Ftorafur]
remaining activity at 1.25 µM ([1]; Well no.=2164): 97.3%
remaining activity at 3.75 µM ([2]; Well no.=2164): 99.1%

N[C@@H](CSCCCO)C(=O)O [Fudosteine]
remaining activity at 1.25 µM ([1]; Well no.=5102): 100%
remaining activity at 3.75 µM ([2]; Well no.=5102): 102%

C[C@]12CC[C@@H]3c4ccc(O)cc4C[C@@H](CCCCCCCCC[S+]([O-])CCCC(F)(F)C(F)(F)F)[C@H]3[C@@H]1CC[C@@H]2O (some centres unmarked) [Fulvestrant]
remaining activity at 1.25 µM ([1]; Well no.=2254): 97.2%
remaining activity at 3.75 µM ([2]; Well no.=2254): 96.8%

CO[C@@H]1[C@H](OC(=O)/C=C/C=C/C=C/C=C/C(=O)O)CC[C@]2(CO2)[C@H]1[C@@]1(C)O[C@@H]1CC=C(C)C [Fumagillin]
remaining activity at 1.25 µM ([1]; Well no.=1621): 103%
remaining activity at 1.25 µM ([1]; Well no.=3283): 102%
remaining activity at 3.75 µM ([2]; Well no.=1621): 100%
remaining activity at 3.75 µM ([2]; Well no.=3283): 101%
